Consider two compounds from article PMC9733406 (ACS nano, 2022).

In one test the test system is bovine serum albumin. Nature of the test: MicroScale Thermophoresis. It counts as binding. The note with it: MST, FITC-labelled peptide. (Microscale thermophoresis detects binding through changes in fluorescence in a small temperature gradient.)
In test [1] the target is MMP-2 targeting peptide (FITC-AA-…). Nature of the test: MST.

Residues, ends and D or L forms follow the SMILES beside them.

For the compound `CC[C@H](C)[C@H](NC(=O)[C@H](CC(=O)O)NC(=O)[C@H](CC(C)C)NC(=O)[C@H](Cc1ccccc1)NC(=O)[C@H](CCC(=O)O)NC(=O)[C@H](CCC(N)=O)NC(=O)[C@H](CCCCN)NC(=O)[C@@H]1CCCN1C(=O)[C@H](C)NC(=O)[C@H](C)NC(=O)CNC(=O)[C@H](CCCNC(=N)N)NC(=O)[C@H](C)NC(=O)[C@H](C)NC(=S)Nc1ccc2c(c1)C(=O)OC21c2ccc(O)cc2Oc2cc(O)ccc21)C(=O)N[C@@H](CCC(=O)O)C(N)=O` [MMP-2 targeting peptide] (HELM PEPTIDE1{[O=C1OC2(c3ccc(O)cc3Oc3cc(O)ccc32)c2ccc(NC(=S)[*:2])cc21].A.A.R.G.A.A.P.K.Q.E.F.L.D.I.E.[am]}$$$$V2.0), in the test with bovine serum albumin, the “nonspecific binding to bovine serum albumin” value is “does not bind nonspecifically”. Regarding “recombinant human MMP-2 (from UniProt P08253 30-660) (enzyme)”, the Kd – broadly, a measure of binding affinity in units of concentration – in test [1] came out at 82.8 nM.
